Experimental data taken from the NIST ThermoML archive (doi:10.1021/acs.jced.8b01217).
Numbers after ± are expanded uncertainties.

Settings: Liquid, Ebulliometric method (Recirculating still)

O [water]
vapor or sublimation pressure (310.81 K): 6.424 ± 0.13 kPa
vapor or sublimation pressure (327.62 K): 15.58 ± 0.27 kPa
vapor or sublimation pressure (339.92 K): 27.15 ± 0.47 kPa
vapor or sublimation pressure (349.24 K): 41.77 ± 0.7 kPa
vapor or sublimation pressure (353.35 K): 47.72 ± 0.81 kPa
vapor or sublimation pressure (357.89 K): 57.67 ± 0.97 kPa
vapor or sublimation pressure (362.48 K): 68.16 ± 1.1 kPa
vapor or sublimation pressure (366.81 K): 80.61 ± 1.4 kPa
vapor or sublimation pressure (370.97 K): 93.23 ± 1.6 kPa
vapor or sublimation pressure (375.04 K): 107.24 ± 1.8 kPa
